From patent publication US8148097B2, “Screening method for identification of compounds with calcium-independent phospholipase A2β (iPLA2β) modulating activity” (Washington University, priority 2005, dated 2012)

Molecular target: T1, iPLA2β (Cricetulus griseus, UniProt A0A3L7I2I8)
T1 construct: (His)6; made in house; host or cells: Sf9 insect cells (baculovirus)
T1 sequence (A0A3L7I2I8 1-752 isoform A0A3L7I2I8-2): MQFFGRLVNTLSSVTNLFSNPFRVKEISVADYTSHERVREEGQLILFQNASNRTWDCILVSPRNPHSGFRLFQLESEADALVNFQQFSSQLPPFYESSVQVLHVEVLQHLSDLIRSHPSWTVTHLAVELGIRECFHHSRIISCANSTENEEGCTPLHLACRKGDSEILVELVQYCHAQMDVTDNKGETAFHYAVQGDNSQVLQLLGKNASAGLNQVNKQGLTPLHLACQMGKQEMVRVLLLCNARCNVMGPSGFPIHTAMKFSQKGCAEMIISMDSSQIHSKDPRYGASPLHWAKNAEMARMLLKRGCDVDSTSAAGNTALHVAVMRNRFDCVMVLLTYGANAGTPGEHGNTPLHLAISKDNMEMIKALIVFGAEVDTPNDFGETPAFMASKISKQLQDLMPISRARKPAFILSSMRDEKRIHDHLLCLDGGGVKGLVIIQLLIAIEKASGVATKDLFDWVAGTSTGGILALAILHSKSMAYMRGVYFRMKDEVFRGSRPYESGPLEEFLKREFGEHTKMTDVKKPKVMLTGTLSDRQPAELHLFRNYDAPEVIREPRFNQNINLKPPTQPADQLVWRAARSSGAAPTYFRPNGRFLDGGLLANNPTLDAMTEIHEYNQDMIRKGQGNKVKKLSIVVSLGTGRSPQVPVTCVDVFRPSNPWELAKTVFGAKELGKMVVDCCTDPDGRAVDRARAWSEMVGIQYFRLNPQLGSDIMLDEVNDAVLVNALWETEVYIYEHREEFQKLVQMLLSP
Test: Covalent acylation (autoacylation) of iPLA2β with [14C]-long chain acyl-CoAs
Format: biochemical
Procedure: FIG. 5—Equivalent amounts of the indicated [1-^14C]-acyl-CoA guests (5 mol %) were incorporated into host POPC (100 μM) vesicles and incubated for 1 hr at 37° C. with equal amounts of either wild-type (WT) iPLA2β(His)6 (peptide disclosed as SEQ ID NO: 4), S465A iPLA2β(His)6 (peptide disclosed as SEQ ID NO: 4), or BEL-pretreated WT iPLA2β(His)6 (peptide disclosed as SEQ ID NO: 4) enzyme as described in Experimental Procedures. Samples were resolved by SDS-PAGE (10% gel), fixed, and dried before visualization by autoradiography.
FIG. 6—Purified iPLA2β(His)6 (peptide disclosed as SEQ ID NO: 4) (2 μM) was incubated with the indicated concentrations of [1-^14C]-oleoyl-CoA present as guest in host POPC (100 μM) vesicles for 1 hr at 37° C. Samples were electrophoresed in parallel with standard amounts (0.5-10 nCi) of [^14C]-BSA of known activity (not shown). The fixed and dried gel was exposed to film and the resultant signals from the [^14C]-BSA were utilized to generate a standard curve utilizing ID software from a Kodak Imagestation to determine the incorporation of [1-^14C]-oleate into iPLA2β.
FIG. 7—Purified iPLA2β(His)6 (peptide disclosed as SEQ ID NO: 4) was incubated with [1-^14C]-oleoyl CoA (10 mol %) incorporated as guest in host POPC vesicles. N-ethylmaleimide and iodoacetamide samples were pretreated with 5 mM of either reagent for 5 min at 30° C. before addition of [1-^14C]-oleoyl-CoA. Samples were incubated with 1 N HCl, 1 N NaOH, or 2 N neutral hydroxylamine for 1 hr at 30° C. as indicated. All samples, except lane 1, were precipitated with CHCl3/MeOH and washed with 70% acetone before SDS-PAGE and autoradiography as described in Experimental Procedures.
FIG. 10—Purified iPLA2β(His)6 (peptide disclosed as SEQ ID NO: 4) was incubated with [1-^14C]-oleoyl CoA (10 mol %) incorporated as guest in host POPC vesicles in the presence of EGTA (5 mM), Ca^2+ (1 mM), CaM (3 μg), or Ca^2+-CaM for 1 h at 37° C. Samples were resolved by SDS-PAGE and the gel was soaked in Amplify fluorographic reagent, dried, and exposed to film as described in Experimental Procedures.
Covalent Modification of […] with [^14C]-long chain Acyl CoAs—Purified recombinant iPLA2β(His)6 (peptide disclosed as SEQ ID NO: 4) was incubated with POPC vesicles containing 10 mol % [1-^14C]-acyl-CoA for 1 h at 37° C. […] Chloroform/methanol precipitation of some samples was performed as described (66) utilizing 15 μg of bovine serum albumin as carrier. In tests to examine the nature of the covalent linkage between oleic acid and iPLA2β, acid (HCl), base (NaOH), and hydroxylamine were added to the indicated concentrations and the samples were incubated at 30° C. for 1 h. Bovine serum albumin (15 μg) and SDS-PAGE loading buffer were then added to each sample prior to dialysis against 50 mM Tris-HCl, pH 6.8 containing 10% glycerol and 1% SDS for 4 h. Samples were electrophoresed by SDS-PAGE, fixed (40% methanol containing 10% acetic acid), stained with Coomassie Blue R-250, incubated in Amplify fluorographic reagent, dried, and exposed to Kodak Biomax MR film for 2-5 days at −80° C.

[1-14C]-oleic acid incorporated per mole of iPLA2β (POPC vesicles, up to 5-fold molar excess of oleoyl-CoA, FIG. 6): approximately 1 mole | radiolabeling of iPLA2β, fold greater than saturated counterparts (wild-type iPLA2β, FIG. 5): 10-100 fold
Structure (SMILES): CCCCCCCC/C=C\CCCCCCCC(=O)SCCNC(=O)CCNC(=O)[C@H](O)C(C)(C)COP(=O)(O)OP(=O)(O)OC[C@H]1O[C@@H](n2cnc3c(N)ncnc32)[C@H](O)[C@@H]1OP(=O)(O)O [oleoyl-CoA]
